Measurements reported in PubChem BioAssay AID330 (DTP/NCI, 2004).
Values joined by “and” are separate entries in the source; they are usually repeats but may differ in a detail not shown here. Equal values may be shown once. Toxic doses and inconclusive results are not listed.

Test system: P388 leukemia ip, CD2F1 mice, survival T/C
Experiment: NCI In Vivo Anticancer Drug Screen. Data for tumor model P388 Leukemia (intraperitoneal) in CD2F1 (CDF1) mice
Conditions: endpoint: median survival time, higher = longer survival
Method in brief: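 Mice carrying the transplanted tumor received test compound or vehicle. Survival was recorded in each group, and the value is the treated-group measurement divided by that of the vehicle-treated control group.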

[1] = dose: 50.0 mg/kg/injection, schedule: Q01DX005 (ip), vehicle: Klucel (hydroxypropylcellulose) (HPC)
[2] = dose: 100.0 mg/kg/injection, schedule: Q01DX005 (ip), vehicle: Klucel (hydroxypropylcellulose) (HPC)
[3] = dose: 200.0 mg/kg/injection, schedule: Q01DX005 (ip), vehicle: Klucel (hydroxypropylcellulose) (HPC)

Oc1ccccc1C=NCCCN=Cc1ccccc1O
T/C (dose: 18.75 mg/kg/injection, schedule: Q01DX009 (ip), vehicle: saline with Tween-80): 103 % of control
T/C (dose: 37.5 mg/kg/injection, schedule: Q01DX009 (ip), vehicle: saline with Tween-80): 110 % of control
T/C (dose: 50.0 mg/kg/injection, schedule: Q01DX009 (ip), vehicle: saline with Tween-80): 109 % of control
T/C (dose: 75.0 mg/kg/injection, schedule: Q01DX009 (ip), vehicle: saline with Tween-80): 111 % of control
T/C (dose: 200.0 mg/kg/injection, schedule: Q01DX009 (ip), vehicle: saline with Tween-80): 121 % of control
T/C (dose: 400.0 mg/kg/injection, schedule: Q01DX009 (ip), vehicle: saline with Tween-80): 119 % of control

CC1CCC(C(C)C)C(NC(=O)C[n+]2cccc(C(N)=O)c2)C1 (configuration not stated)
T/C (dose: 12.5 mg/kg/injection, schedule: Q04DX002 (ip), vehicle: saline): 99 % of control
T/C (dose: 25.0 mg/kg/injection, schedule: Q04DX002 (ip), vehicle: saline): 105 % of control
T/C (dose: 50.0 mg/kg/injection, schedule: Q04DX002 (ip), vehicle: saline): 101 % of control

CCCSc1ccc2nc(NC(=O)OC)[nH]c2c1
T/C (dose: 60.0 mg/kg/injection, schedule: Q01DX005 (ip), vehicle: saline with Tween-80): 106 % of control and 111 % of control
T/C (dose: 120.0 mg/kg/injection, schedule: Q01DX005 (ip), vehicle: saline with Tween-80): 109 % of control and 112 % of control
T/C (dose: 480.0 mg/kg/injection, schedule: Q01DX005 (ip), vehicle: saline with Tween-80): 156 % of control

CCOC(=O)C(CC)C(O)(c1ccc2c(c1)OCO2)c1cc(OC)c(OC)c(OC)c1 (configuration not stated)
T/C [1]: 96 % of control
T/C [2]: 94 % of control
T/C [3]: 93 % of control

CS(=O)(=O)c1nc(N)c2nnn(C3OC(CO)C(O)C3O)c2n1 (configuration not stated)
T/C (dose: 12.5 mg/kg/injection, schedule: Q01DX001 (ip), vehicle: saline): 109 % of control
T/C (dose: 25.0 mg/kg/injection, schedule: Q01DX001 (ip), vehicle: saline): 100 % of control
T/C (dose: 50.0 mg/kg/injection, schedule: Q01DX001 (ip), vehicle: saline): 118 % of control
T/C (dose: 100.0 mg/kg/injection, schedule: Q01DX001 (ip), vehicle: saline): 109 % of control

CCOC(=O)c1c(C#N)c2ccccc2n1O
T/C (dose: 25.0 mg/kg/injection, schedule: Q01DX001 (ip), vehicle: distilled water + Tween-80): 110 % of control
T/C (dose: 50.0 mg/kg/injection, schedule: Q01DX001 (ip), vehicle: distilled water + Tween-80): 106 % of control
T/C (dose: 100.0 mg/kg/injection, schedule: Q01DX001 (ip), vehicle: distilled water + Tween-80): 110 % of control
T/C (dose: 100.0 mg/kg/injection, schedule: Q01DX001 (ip), vehicle: saline with Tween-80): 97 % of control
T/C (dose: 400.0 mg/kg/injection, schedule: Q01DX001 (ip), vehicle: saline with Tween-80): 99 % of control

CC(C)Oc1ccc(C(=O)NS(=O)(=O)c2ccc(N=CC3C(=O)N(c4ccccc4)N(c4ccccc4)C3=O)cc2)cc1
T/C (dose: 100.0 mg/kg/injection, schedule: Q01DX009 (ip), vehicle: Klucel (hydroxypropylcellulose) (HPC)): 92 % of control
T/C (dose: 200.0 mg/kg/injection, schedule: Q01DX009 (ip), vehicle: Klucel (hydroxypropylcellulose) (HPC)): 86 % of control

CNC(=O)OCc1c(C)oc(-c2ccc(Cl)c(Cl)c2)c1COC(=O)NC
T/C (dose: 25.0 mg/kg/injection, schedule: Q01DX009 (ip), vehicle: distilled water + Tween-80): 102 % of control
T/C (dose: 50.0 mg/kg/injection, schedule: Q01DX009 (ip), vehicle: distilled water + Tween-80): 97 % of control
T/C (dose: 100.0 mg/kg/injection, schedule: Q01DX009 (ip), vehicle: distilled water + Tween-80): 97 % of control
T/C (dose: 200.0 mg/kg/injection, schedule: Q01DX009 (ip), vehicle: distilled water + Tween-80): 91 % of control
T/C (dose: 400.0 mg/kg/injection, schedule: Q01DX009 (ip), vehicle: distilled water + Tween-80): 90 % of control

Cc1cc(C2=CSC3=NCCN23)ccc1Cl
T/C (dose: 50.0 mg/kg/injection, schedule: Q01DX005 (ip), vehicle: saline with Tween-80): 107 % of control
T/C (dose: 100.0 mg/kg/injection, schedule: Q01DX005 (ip), vehicle: saline with Tween-80): 105 % of control

CN(C)C(=S)NCc1ccccc1
T/C (dose: 100.0 mg/kg/injection, schedule: Q04DX003 (ip), vehicle: saline with Tween-80): 100 % of control
T/C (dose: 200.0 mg/kg/injection, schedule: Q04DX003 (ip), vehicle: saline with Tween-80): 100 % of control

Nc1nc(C2CCCC2)cc(=O)[nH]1
T/C [1]: 108 % of control
T/C [2]: 105 % of control
T/C [3]: 97 % of control

CCC/C=C\C=C\C(=O)OC1C2C=C3CC(C(C)O)OC(=O)CC(O)CC4CC(OC(C)=O)C(C)(C)C(O)(CC5C/C(=C\C(=O)OC)CC(/C=C/C(C)(C)C16OC(=O)C(O)C32O6)O5)O4 (configuration not stated)
T/C (dose: 0.03 mg/kg/injection, schedule: Q01DX009 (ip), vehicle: saline + alcohol): 163 % of control
T/C (dose: 30.0 micrograms/kg/injection, schedule: Q01DX009 (ip), vehicle: saline + alcohol): 153 % of control

ClCC[N-]CC[N-]CCCl.ClCC[N-]CC[N-]CCCl.[O-][Cl+3]([O-])([O-])O.[Zn+2]
T/C (dose: 5.0 mg/kg/injection, schedule: Q04DX003 (ip), vehicle: saline with Tween-80): 102 % of control
T/C (dose: 10.0 mg/kg/injection, schedule: Q04DX003 (ip), vehicle: saline with Tween-80): 111 % of control
